Drawing on patent US7138404B2, “4-aminopyrimidine derivatives” (Hoffmann-La Roche Inc., priority 2001, dated 2006), this text covers IC50 and melting point for 17 compounds.

In one series the target is T1, rat mGlu 5a receptor (Rattus norvegicus, UniProt P31424).
T1 construct: expressed in transfected cells; host or cells: EBNA cells (transient transfection)
T1 sequence (P31424 21-1171 isoform P31424-2 limits assumed): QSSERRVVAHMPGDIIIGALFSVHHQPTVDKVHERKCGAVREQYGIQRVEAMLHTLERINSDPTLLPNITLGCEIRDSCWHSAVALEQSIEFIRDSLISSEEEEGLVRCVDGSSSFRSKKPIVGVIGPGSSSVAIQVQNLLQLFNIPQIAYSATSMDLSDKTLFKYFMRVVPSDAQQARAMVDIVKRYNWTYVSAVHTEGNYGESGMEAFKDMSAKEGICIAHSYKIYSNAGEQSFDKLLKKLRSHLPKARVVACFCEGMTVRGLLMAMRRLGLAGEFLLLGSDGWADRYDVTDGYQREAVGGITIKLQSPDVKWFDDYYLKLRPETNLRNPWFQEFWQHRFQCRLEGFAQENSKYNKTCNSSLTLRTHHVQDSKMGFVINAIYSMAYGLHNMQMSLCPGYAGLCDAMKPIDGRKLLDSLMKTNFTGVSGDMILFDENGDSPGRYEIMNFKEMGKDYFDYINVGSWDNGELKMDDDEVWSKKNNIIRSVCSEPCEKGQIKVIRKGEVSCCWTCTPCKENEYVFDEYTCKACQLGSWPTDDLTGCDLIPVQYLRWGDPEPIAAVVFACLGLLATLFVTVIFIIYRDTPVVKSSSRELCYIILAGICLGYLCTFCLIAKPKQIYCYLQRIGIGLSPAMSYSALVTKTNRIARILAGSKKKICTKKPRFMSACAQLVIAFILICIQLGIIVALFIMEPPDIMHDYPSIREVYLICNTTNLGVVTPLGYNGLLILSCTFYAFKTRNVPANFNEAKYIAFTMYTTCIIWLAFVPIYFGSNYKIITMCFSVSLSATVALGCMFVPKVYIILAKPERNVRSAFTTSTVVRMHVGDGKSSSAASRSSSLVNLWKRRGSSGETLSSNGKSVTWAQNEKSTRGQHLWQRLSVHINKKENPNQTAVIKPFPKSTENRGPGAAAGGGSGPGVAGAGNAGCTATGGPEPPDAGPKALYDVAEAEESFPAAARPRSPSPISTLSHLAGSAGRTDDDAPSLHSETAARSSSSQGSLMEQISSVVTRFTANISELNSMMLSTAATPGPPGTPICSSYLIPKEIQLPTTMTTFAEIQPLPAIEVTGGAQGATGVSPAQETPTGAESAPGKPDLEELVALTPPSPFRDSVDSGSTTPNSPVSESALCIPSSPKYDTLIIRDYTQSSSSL
The series can be described thus: [Ca2+]i measurement (FLIPR) on mGlu 5a transfected EBNA cells, antagonist mode. Type of series: cell-based. Particulars: rat mGlu 5a transiently transfected EBNA cells; Fluo 3-AM; tested against 10 μM glutamate as agonist. How it is done: The pharmacological activity of the compounds was tested using the following method:
cDNA encoding rat mGlu 5a receptor was transiently transfected into EBNA cells using a procedure described by E. -J. Schlaeger and K. Christensen (Cytotechnology 1998, 30, 71–83). [Ca^2+]i measurements were performed on mGlu 5a transfected EBNA cells after incubation of the cells with Fluo 3-AM (obtainable by FLUKA, 0.5 μM final concentration) for 1 hour at 37° C. followed by 4 washes with assay buffer (DMEM supplemented with Hank's salt and 20 mM HEPES. [Ca^2+]i measurements were done using a fluorometric imaging plate reader (FLIPR, Molecular Devices Corporation, La Jolla, Calif., USA). When compounds were evaluated as antagonists they were tested against 10 μM glutamate as agonist.
The inhibition (antagonists) curves were fitted with a four parameter logistic equation giving IC50, and Hill coefficient using the iterative non linear curve fitting software Origin (Microcal Software Inc., Northampton, Mass., USA).
As usually defined, the IC50 is the concentration at which inhibition is half-maximal. A low value points to greater potency. In turn, `CCOC(=O)CSc1ncc(C(=O)OCC)c(N)n1` [Example 19, 4-Amino-2-ethoxycarbonylmethylsulfanyl-pyrimidine-5-carboxylic acid ethyl ester] had a concentration for half-maximal inhibition (IC50) of 270 nM.
Still for that read-out and setting: as for `CCOC(=O)CSc1ncc(Cc2ccsc2)c(N)n1` [Example 12, (4-Amino-5-thiophen-3-ylmethyl-pyrimidin-2-ylsulfanyl)-acetic acid ethyl ester], the figure is 180 nM.
Same read-out and setting: to `CCOC(=O)CSc1ncc(-c2ccc(Cl)cc2Cl)c(N)n1` [Example 5, [4-Amino-5-(2,4-dichloro-phenyl)-pyrimidin-2-ylsulfanyl]-acetic acid ethyl ester] belongs 3850 nM; to `CCNc1nc(SCC(=O)OCC)ncc1Cc1cccs1` [Example 21, (4-Ethylamino-5-thiophen-2-ylmethyl-pyrimidin-2-ylsulfanyl)-acetic acid ethyl ester], 600 nM; to `Nc1nc(SCc2ncon2)ncc1Cc1cccs1` [Example 11, 2-([1,2,4]Oxadiazol-3-ylmethylsulfanyl)-5-thiophen-2-ylmethyl-pyrimidin-4-ylamine], 400 nM.
On the same count and under the same terms, as for `CCOC(=O)CSc1ncc(Cc2ccc(Br)cc2)c(N)n1` [Example 6, [4-Amino-5-(4-bromo-benzyl)-pyrimidin-2-ylsulfanyl]-acetic acid ethyl ester], the figure is 180 nM; as for `CCOC(=O)CSc1ncc(Cc2ccoc2)c(N)n1` [Example 13, (4-Amino-5-furan-3-ylmethyl-pyrimidin-2-ylsulfanyl)-acetic acid ethyl ester], 160 nM.
As to `C=CCOC(=O)CSc1ncc(Cc2ccccc2)c(N)n1` [Example 22, (4-Amino-5-benzyl-pyrimidin-2-ylsulfanyl)-acetic acid allyl ester], the half-maximal inhibitory concentration (IC50) worked out at 120 nM.
Still for that read-out and setting: as for `CC1CC1COC(=O)CSc1ncc(Cc2ccccc2)c(N)n1` (centres unmarked) [Example 24, (4-Amino-5-benzyl-pyrimidin-2-ylsulfanyl)-acetic acid 2-methyl-cyclopropylmethyl ester], the figure is 630 nM.
On the same count and under the same terms, as for `CCOC(=O)CSc1ncc(Cc2ccccc2)c(N)n1` [Example 3, (4-Amino-5-benzyl-pyrimidin-2-ylsulfanyl)-acetic acid ethyl ester], the figure is 140 nM; as for `C#CCSc1ncc(Cc2cccs2)c(N)n1` [Example 8, 2-Prop-2-ynylsulfanyl-5-thiophen-2-ylmethyl-pyrimidin-4-ylamine], 1390 nM.
Regarding `C=CCSc1ncc(Cc2cccs2)c(N)n1` [Example 9, 2-Allylsulfanyl-5-thiophen-2-ylmethyl-pyrimidin-4-ylamine], the 50% inhibitory concentration (IC50) was 2790 nM.
Still for that read-out and setting: as for `CCOC(=O)CSc1ncc(Cc2cccs2)c(NCC(C)C)n1` [Example 31], the figure is 160 nM; as for `Nc1nc(SCC(=O)OCC2CC2)ncc1Cc1ccccc1` [Example 29, (4-Amino-5-benzyl-pyrimidin-2-ylsulfanyl)-acetic acid cyclopropylmethyl ester], 200 nM; as for `Nc1nc(SCC(=O)OCC2CCC2)ncc1Cc1ccccc1` [Example 25, (4-Amino-5-benzyl-pyrimidin-2-ylsulfanyl)-acetic acid cyclobutylmethyl ester], 1460 nM.
On the same count and under the same terms, to `CCOC(=O)CSc1ncc(Cc2cccn2C)c(N)n1` [Example 4, [4-Amino-5-(1-methyl-1H-pyrrol-2-ylmethyl)-pyrimidin-2-ylsulfanyl]-acetic acid ethyl ester] belongs 380 nM.

Tested on in another series: not given
Experiment: not given
Conditions: not given
For orientation: melting point means the temperature of the solid-liquid transition. The compound `Nc1nc(SCc2nc(C3CC3)no2)ncc1Cc1ccccc1` [Example 33, 5-Benzyl-2-(3-cyclopropyl-[1,2,4]oxadiazol-5-ylmethylsulfanyl)-pyrimidin-4-ylamine] gave a melting point of 94 °C.
